Values joined by “and” are separate entries in the source; they are usually repeats but may differ in a detail not shown here. Equal entries are not always repeated. “Also recorded” adds a separate entry of the source. Where two headings read alike, the source gives them in different places.

One assay has as its target T1, human thyroid receptor (Homo sapiens, UniProt P10828).
T1 sequence (P10828 1-461): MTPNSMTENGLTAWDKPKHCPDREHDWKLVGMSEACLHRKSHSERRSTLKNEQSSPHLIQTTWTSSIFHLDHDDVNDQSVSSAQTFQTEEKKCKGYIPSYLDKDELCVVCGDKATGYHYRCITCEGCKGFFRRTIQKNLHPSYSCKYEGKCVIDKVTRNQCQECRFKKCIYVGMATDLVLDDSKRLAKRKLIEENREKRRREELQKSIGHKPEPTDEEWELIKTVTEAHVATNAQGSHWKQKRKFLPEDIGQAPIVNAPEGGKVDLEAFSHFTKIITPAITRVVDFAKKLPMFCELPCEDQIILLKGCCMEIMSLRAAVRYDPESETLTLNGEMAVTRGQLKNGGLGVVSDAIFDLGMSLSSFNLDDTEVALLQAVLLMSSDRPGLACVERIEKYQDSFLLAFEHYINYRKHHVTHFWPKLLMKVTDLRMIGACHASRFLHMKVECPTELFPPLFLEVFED
The assay can be described thus: Thyroid hormone receptor binding affinity. The source says:
Partial agonist/antagonists also may exist. (Suitable ligands may be agonists or antagonists).

Another assay deals with Skin-2 model ZK1301. As to the kind of experiment: Skin-2 model: mRNA expression by RT-PCR, semi-quantitative.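 Further: Three-dimensional human skin equivalent of dermal fibroblasts and foreskin keratinocytes at an air-liquid interface, exposed for 10 or 48 h, mRNA measured in total RNA by RT-PCR.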
The subject of the next assay is Hairless mice SKH-1. The assay can be described thus: Photodamaged skin: UV-B irradiated hairless mice treated with cream for 16 weeks. The assay is classed as in vivo. To be noted: cream for 16 weeks after 12 weeks of UV-B irradiation, compared to untreated irradiated animals. The procedure:
Hairless mice SKH-1 are UV-B irradiated according to the schedule of (22). After 12 weeks of irradiation, significant wrinkling results. The mice are treated with the thyroid hormone Triac-containing cream for a period of 16 weeks after irradiation. The degree of wrinkling appearing on the irradiated mice is compared to untreated, irradiated animals to which the appropriate pharmaceutical base is not applied.

For a further assay, the system named is phosphodiesterase. To be noted: in vitro, isolated adipocytes; FR2354101; cited from earlier work.
Setting [1] is: Table 3, Skin-2 model, 10uM, transcriptional response score.
[2] abbreviates: Table 3, Skin-2 model, 10uM, transcriptional response score, listed as L-T-I.
Setting [3] is: Skin-2 model, 1 µM, semi quantitative mRNA change vs control.
Setting [4] is: Skin-2 model, 50 nM, semi quantitative mRNA change vs control.
Where [5] appears, read: Table 3, Skin-2 model, 50nM, transcriptional response score.
[6] abbreviates: Table 3, Skin-2 model, 1 µM, transcriptional response score.

Source text for Skin-2 model ZK1301: A novel synthetic human skin, Skin- 2 model ZK1301 (Advanced Tissue Sciences, La Jolla (USA)) is composed of a three dimensional human skin culture consisting of a dermal fibroblast layer and human foreskin keratinocytes which can be grown with an air-keratinocyte interface to promote normal differentiation and cornification of the model skin.
The following were components of the Skin^2 kits: 9x9 mm skin tissues on agarose, 6-well plates, and Millicell inserts. Two media based on Dulbecco's Modification of Eagle's medium were also included: Maintenance medium (containing 5% fetal calf serum) and serum-free assay medium.
All-trans-retinoic acid, 1,25-(OH)2-vitamin D3, and betamethasone were purchased from Sigma Chemicals (Stockholm). Upon arrival the skin tissues were placed dermal-side down into the center of a Millicell in a 6-well plate well containing prewarmed maintenance medium. The tissues were incubated at 37°C in an atmosphere of 5% CO2 in air. After 24 h the maintenance medium was exchanged.
Following another 24 h the Maintenance medium was removed and replaced by Serum- free assay medium containing 5% "stripped" fetal calf serum. Substances were added within 1 h after medium exchange and the tissues were incubated for 10 or 48 h in the presence of the substances. Medium and substances were changed after 24 h incubation. The cells were grown at an air - liquid interface. At the end of the 48 h-incubation period two tissues were pooled together in a sterile plastic centrifugation tube. The tissue was snap frozen on solid ice (-60°C) and stored at -70°C until used. Duplicate samples were included for each treatment.
Total RNA was extracted from Skin^2 -samples and human skin biopsies using Ultraspec II (Biotecx Laboratories, Inc., Houston, TX). One ml of Ultraspec II was added to each sample which were homogenized by using a Polytron for 2x20 sec at setting 6. Total RNA was extracted according to the protocol supplied by the manufacturer. […] After incubation at 37°C for 60 min, the reaction was stopped by heating at 75°C for 10 min and the mixture stored at -70°C until cDNA amplification was performed.
The tubes were placed in a Thermal cycler (Perkin-Elmer) programmed as follows: (a) 90°C for 90 s; (b) variable number of cycles (see Table 1) of the following sequential steps: 60 s at 94°C, 75 s at annealing temp (see Table 1), 90 s at 72°C; and (c) 7 min at 72°C. […] Gels were recorded by videoprints. The amount of product was estimated on the videopoint or directly on the gel. The amount of transcripts in each lane were compared in relation to two control samples run in parallel.

`N[C@@H](Cc1ccc(Oc2ccc(O)cc2)c(I)c1)C(=O)O` [L-T-1, 3-idodo-L-Thronine]: the inhibition constant Ki on human thyroid receptor came out at 20000 nM. Moreover, the “binding to the thyroid hormone receptor (in words)” value at human thyroid receptor (b58: even at the tested ten micromolar concentration) is on record as “no thyroid hormone receptor binding activity; also recorded: binds poorly”. Moreover, in the assay with Skin-2 model ZK1301 (setting [1]), the “col a-1” value amounted to 0.5, the “col a-3” value is reported as 0.5, the “gf(pdgf-L)” value was 1 and the k1 was 0. Moreover, in the assay on Skin-2 model ZK1301 (setting [1]), the k10 is given as 0, the k16 came out at 0, the scce was 1 and the trans gk is given as 1. For the same compound, in the assay on Skin-2 model ZK1301 (setting [2]), the “col a-1” value is “only modest effects”, the “col a-3” value is “only modest effects”, the k1 result was “no inhibition” and the k10 entry is on record as “no inhibition”. In addition, in the assay on Skin-2 model ZK1301 (setting [2]), the scce entry was “positive effect” and the trans gk entry was “positive effect”.
On to `CC1=C(/C=C/C(C)=C/C=C/C(C)=C/C(=O)O)C(C)(C)CCC1` [RA, All-trans-retinoic acid], for which, in the assay on Skin-2 model ZK1301 (setting [3]), the IL-6 was -1, the “col 1A-1” value was 2, the “col 3A-1” value was 1 and the crabp-II was found to be 1. In addition, in the assay with Skin-2 model ZK1301 (setting [3]), the “ctgf(pdgf-L)” value turned out to be 1, the k1 is on record as -3, the k10 is reported as -1 and the k16 is -0.5. In the assay with Skin-2 model ZK1301 (setting [3]), this compound gave a k19 of -1, a tgfbeta-2 of 2 and a trans gk of -3.
On to `O=C(O)Cc1cc(I)c(Oc2ccc(O)c(I)c2)c(I)c1` [Triac, tri-iodothyroacetic acid], for which, in the assay on Hairless mice SKH-1, the skin collagen result is reported as “increase” and the “wrinkle pattern of the animals” value is on record as “significant decrease”. In addition, the “dose range at which phosphodiesterase inhibition and cyclic AMP increase occur” value with phosphodiesterase is recorded as “approximately 10^-4 M”. Also, in the assay on Skin-2 model ZK1301 (setting [4]), the “ctgf(pdgf-L)” value was 1, the k16 is -1 and the k19 was -1. In the assay with Skin-2 model ZK1301 (setting [3]), the IL-6 was -0.5, the “col 1A-1” value is 2, the “col 3A-1” value is given as 1 and the crabp-II was -1. In the assay with Skin-2 model ZK1301 (setting [3]), this compound gave a k1 of -2, a k10 of -2, a k16 of -0.5 and a k19 of -1. In the assay with Skin-2 model ZK1301 (setting [3]), this compound displayed a scce of -2, a tgfbeta-2 of 2 and a trans gk of -3. Also, in the assay on Skin-2 model ZK1301 (setting [5]), the k1 is on record as -2 and the k16 was 0. Also, in the assay with Skin-2 model ZK1301 (setting [6]), the “col a-1” value is reported as 1; the “col a-3” value is recorded as 1; the “gf(pdgf-L)” value was 2 and 1; the k1 is recorded as -1. Moreover, in the assay with Skin-2 model ZK1301 (setting [6]), the k16 worked out at 0 and the trans gk is given as -0.5.
On to `C[C@H]1C[C@H]2[C@@H]3CCC4=CC(=O)C=C[C@]4(C)[C@@]3(F)[C@@H](O)C[C@]2(C)[C@@]1(O)C(=O)CO` [betameth, betamethasone], for which, in the assay on Skin-2 model ZK1301 (setting [3]), the IL-6 is listed as -2, the “col 1A-1” value turned out to be 0.5, the “col 3A-1” value was -0.5 and the crabp-II is listed as -1. Besides, in the assay with Skin-2 model ZK1301 (setting [3]), the “ctgf(pdgf-L)” value came out at 1, the k1 was -3, the k10 is reported as -0.5 and the k16 is -1. In the assay with Skin-2 model ZK1301 (setting [3]), the k19 is listed as -0.5, the scce is recorded as -1, the tgfbeta-2 is 0 and the trans gk is listed as -1.
Turning to `N[C@@H](Cc1cc(I)c(Oc2ccc(O)c(I)c2)c(I)c1)C(=O)O` [compound number 1, Trilodothyronine], in the assay with Skin-2 model ZK1301 (setting [6]), the “col a-1” value worked out at 1, the “col a-3” value amounted to 2, the “gf(pdgf-L)” value is listed as 1 and the k1 is -2. In addition, in the assay on Skin-2 model ZK1301 (setting [6]), the k10 is on record as -0.5, the k16 came out at 0, the scce is given as 0.5 and the trans gk turned out to be 0.
Consider `O=C(O)c1cc(I)c(Oc2ccc(O)c(I)c2)c(I)c1` [compound number 2], for which the Ki on human thyroid receptor came to 0.1 nM. In the assay with Skin-2 model ZK1301 (setting [6]), the “col a-1” value stood at 2, the “col a-3” value is 1, the “gf(pdgf-L)” value turned out to be 1 and the k1 is on record as -1. Besides, in the assay with Skin-2 model ZK1301 (setting [6]), the k10 is 0, the k16 is recorded as 0, the scce worked out at 0.5 and the trans gk is 0.5.
Consider `N[C@@H](Cc1cc(I)c(Oc2cc(I)c(O)c(I)c2)c(I)c1)C(=O)O` [compound number 3, Thyroxine], for which, in the assay on Skin-2 model ZK1301 (setting [6]), the “col a-1” value is 2, the “col a-3” value is 0.5, the “gf(pdgf-L)” value came out at 1 and the k1 is given as -2. In the assay with Skin-2 model ZK1301 (setting [6]), this compound showed a k10 of -1, a k16 of 0, a scce of 0 and a trans gk of 1.
As for `NC(Cc1cc(Br)c(Oc2ccc(O)c(Cc3ccc(=O)[nH]n3)c2)c(Br)c1)C(=O)O` (stereo not shown) [compound number 5], the affinity at human thyroid receptor, expressed as Ki, was 8 nM. Besides, the “relative selectivity of gene responses” value with Skin-2 model ZK1301 (Skin-2 model, 1 µM, epidermal differentiation genes versus collagen genes) was “relative selectively for keratin 1, tranglutaminase K and SCCE responses over collagen responses”. In addition, in the assay with Skin-2 model ZK1301 (setting [6]), the “col a-1” value came to 0, the “col a-3” value worked out at 0 and the k16 is -0.5.
Turning to `Cc1cc(C[C@H](N)C(=O)O)cc(C)c1Oc1ccc(O)c(C(C)C)c1` [compound number 6, 1-3,5-Dimethyl-3'-isopropylthyronine], the Ki on human thyroid receptor (Table 3, binding affinity to the human thyroid receptor, read-out: Ki) is 75 nM. In the assay with Skin-2 model ZK1301 (setting [6]), the “col a-1” value turned out to be 1, the “col a-3” value worked out at 0.5, the “gf(pdgf-L)” value was 1 and the k1 is recorded as -2. For the same compound, in the assay with Skin-2 model ZK1301 (setting [6]), the k10 is on record as -1, the k16 was found to be 0, the scce is given as -1 and the trans gk is recorded as -2.
Consider `Cc1cc(NC(=O)C(=O)O)cc(C)c1Oc1ccc(O)c(C(C)C)c1` [compound number 7, N-[3,5-Dimethy-4-(4'-hydroxy-3'-isopropylphenoxy)-phenyl]oxamic Acid], for which affinity on human thyroid receptor was put at a Ki of 0.1 nM. In the assay on Skin-2 model ZK1301 (setting [6]), the “col a-1” value turned out to be 1, the “col a-3” value is listed as 1, the “gf(pdgf-L)” value came out at 1 and the k1 is recorded as -1. In the assay on Skin-2 model ZK1301 (setting [6]), this compound displayed a k10 of 1, a k16 of 0.5, a scce of -1 and a trans gk of -1.
As to `C=C1C(=CC=C2CCCC3(C)C2CCC3C(C)CCCC(C)(C)O)CC(O)CC1O` (stereo not shown) [vit D, 1,25-(OH)2-vitamin D3], in the assay on Skin-2 model ZK1301 (setting [3]), the IL-6 is listed as -1, the “col 1A-1” value was 2, the “col 3A-1” value is 2 and the crabp-II was -1. Moreover, in the assay with Skin-2 model ZK1301 (setting [3]), the “ctgf(pdgf-L)” value is on record as 0, the k1 is recorded as 0, the k10 was -1 and the k16 was 0. Also, in the assay on Skin-2 model ZK1301 (setting [3]), the k19 amounted to 0, the scce is 0, the tgfbeta-2 is listed as 2 and the trans gk is -1.

(Values after EP0831769B2, “NOVEL USES FOR THYROID HORMONES OR THYROID HORMONE-LIKE COMPOUNDS” (Lavin, Dr., Thomas N., priority 1995, dated 1996).)
